Laboratory results taken from patent US20260131007A1, “Mannose 6-Phosphate Receptor Binding Compounds for the Degradation of Extracellular Proteins” (Avilar Therapeutics, Inc., priority 2023, published 2026).
Where “and” joins values, the source holds several entries; their conditions need not be identical. Identical values can stand only once. Like-named read-outs stand apart in the source and are kept apart here. Bridge positions count the residues as written; N and C are the ends. Square brackets hold non-standard residues; d marks the D form.

Experiments:
[1] = target: T1, hIGF-IIR and IgG1 (ternary complex) (Homo sapiens, UniProt P01857+P11717); assay: HTRF-based ternary complex formation assay for hIGF-IIR targeting Extracellular Protein Degraders; assay type: binding
T1 construct: purchased R&D Systems 6418-GR
Description: The ternary complex formation assay is designed to identify and determine the potency of Extracellular Protein Degrader molecules which can induce the formation of ternary complex between the Extracellular Protein Degrader hIGF-IIR. Titrating Extracellular Protein Degrader to fixed amount of hIGF-IIR results in a bell-shaped curve (except molecules whose binary complex affinity between Extracellular Protein Degrader and hIGF-IIR). The peak mean represents Extracellular Protein Degrader concentration at which maximum ternary complex is formed. Too much or too little Extracellular Protein Degrader leads to decreased ternary complex formation due to formation of binary complex (Hook effect). Dose response of Extracellular Protein Degrader compounds (16-point 3-fold dilution series, 100X) were prepared by Echo Acoustic Liquid Handler (Beckman Coulter Life Sciences) using 384-well LDV microplate. Then 200 nL of the solutions were transferred to an OptiPlate 384-well microplate (PerkinElmer, 6007290). To the assay plate, 10 μL working solution containing 60 nM of Biotinylated-IgG1 (Viva 20211108) and 60 nM of His-tagged hIGF-IIR (R&D Systems, 6418-GR) in assay buffer 50 mM Tris, pH 7.5, 150 mM NaCl, 50 mM CaCl2, 0.01% Tween-20 were added. The plate was incubated for 60 min at room temperature with gentle shaking to allow molecular interaction to reach equilibration. Following this, 10 μL of HTRF detection solution containing 15 nM Streptavidin-d2 (PerkinElmer, 610SADLA) and 0.7 nM MAb Anti 6HIS—Tb cryptate (PerkinElmer, 61HISTLA) in PPI Terbium detection buffer (PerkinElmer, 61DB10RDF) were added. The assay plate was incubated at room temperature with gentle shaking for 60 min to allow HTRF signal to develop. The plate was gently spun on a centrifuge then placed on an EnVision plate reader (Perkin Elmer, EnVision 2104) to read fluorescence ratio of 665 nm/615 nm. Data were analyzed by fitting with Bell-shaped non-linear regression model using GraphPad Prism (GraphPad Software, LLC; version 9.4.1). Mean fluorescence intensity is graphed versus compound concentration and the EC50 for TCF is calculated from the inflection point of the curve (GraphPad).

K562 cells = assay: Ternary complex formation (TCF) in K562 cells, flow cytometry with AF488-labeled human IgG; assay type: cell-based; conditions: AF488-labeled human IgG 300 nM, 4° C., 1 hour
Protocol: K562 cells were seeded in 96-well assay plate using K562 cell medium, then compounds and AF488-labeled human IgG (final concentration of 300 nM) were added at 4° C. and incubated for 1 hour. Afterwards, the cells were washed once with 1×PBS+0.1% BSA (Cold) and centrifuged at 1000 rpm for 5 minutes. Next, cells were re-suspended in 150 μL 1×PBS+0.1% BSA and ran flow cytometry on iQue® Screener PLUS.

IgG = assay: Uptake and degradation in K562 cells (Western blot); assay type: cell-based, human; conditions: K562 cells treated with compound and IgG; FIG. 14-17
Protocol: On day one, cells were harvested, counted, and seeded 1 million/well in 6 well plates for each cell line. On day two, cells were treated with compounds and IgG (Sigma, Cat #14506 dissolved in medium). Treated cells were washed three times with PBS, followed by addition of 200 μL of RIPA buffer (+HALT protease and phosphatase inhibitors) per well. Lysates were left on ice for 5 minutes then were collected into microcentrifuge tubes using a cell scraper. Lysates were then kept on a shaker for 30-60 minutes at 4° C. followed by centrifugation at 14,000 rpm at 4° C. for 15 minutes. Then, supernatants were transferred to fresh tubes and total protein concentration of each sample was determined using Pierce BCA kit. Next, 25 ug total protein of each sample was resolved on a 4-20% gels and transferred to PVDF membranes. Membranes were blocked in TBST+5% milk (made fresh) for one hour while shaking at room temperature. Then, the first antibody was added in TBST+5% milk at 4° C. overnight: a) Rabbit anti-human IgG, Abcam; Cat #ab181236-1:1000, b) anti-β-actin, Cell signaling Tech, Cat #3700S)-1:3000. On the next day, membranes were washed with TBST 10 minutes each for three times. Later, the second antibody was added in TBST+5% milk at room temperature over one hour: a) IRDye 800CW Goat anti Rabbit IgG, Licor, Cat #926-32211)-1:10,000; b) IRDye 680RD Goat anti Mouse IgG (Licor Cat #926-68078)-1:10,000. Then, membranes were washed with TBST 10 minutes each for three times. The results were detected by Licor. Data from the uptake and degradation assay is shown in FIG. 14, FIG. 15, FIG. 16, and FIG. 17.

[2] = target: AF488-labeled human IgG (human); assay: flow cytometry, ternary complex formation on K562 cells at 4 C, compound + 300 nM AF488-labelled human IgG; grade read by the legend '<50 nM = ***'
[3] = target: Biotinylated-IgG1 (Viva 20211108); assay: HTRF ternary complex formation: compound titrated into 60 nM biotinylated IgG1 + 60 nM His-tagged hIGF-IIR (R&D 6418-GR); grade read by the legend '<50 nM = ***'
[4] = target: AF488-labeled human IgG (human); assay: flow cytometry, ternary complex formation on K562 cells at 4 C, compound + 300 nM AF488-labelled human IgG; grade read by the legend '50 nM < IC50 < 250 nM = **'

Molecule	EC50 (K562 cells) [nM]	degradation of IgG (gel electrophoresis image) (IgG)	EC50 [2] [nM]	EC50 [3] [nM]	further results
CC(C)C[C@@H]1NC(=O)[C@H](Cc2c[nH]cn2)NC(=O)[C@H](Cc2c[nH]c3ccccc23)NC(=O)[C@H](C)NC(=O)[C@@H]2CSSC[C@H](NC(=O)[C@H](Cc3c[nH]c4ccccc34)NC(=O)[C@H](C(C)C)NC(=O)[C@H](CC(C)C)NC(=O)[C@H](CCC(=O)O)NC(=O)CNC1=O)C(=O)N[C@@H]([C@@H](C)O)C(=O)N1CCC[C@@H]1C(=O)N1C[C@@H](NC(=O)CCOCCOCCOCCOCCOCCOCCOCCOCCn3cc([C@H]4O[C@H](CCP(=O)(O)O)[C@@H](O)[C@H](O)[C@@H]4O)nn3)C[C@H]1C(=O)N[C@@H](CC(=O)O)C(=O)N2 [Compound 8]	< 50	degradation of IgG			EC50 ([1]; biotinylated IgG1 and His-tagged hIGF-IIR, 60 nM each, read-out: TCF (HTRF) EC50): < 50 nM
CC(C)C[C@@H]1NC(=O)[C@H](Cc2c[nH]cn2)NC(=O)[C@H](Cc2c[nH]c3ccccc23)NC(=O)[C@H](C)NC(=O)[C@@H]2CSSC[C@H](NC(=O)[C@H](Cc3c[nH]c4ccccc34)NC(=O)[C@H](C(C)C)NC(=O)[C@H](CC(C)C)NC(=O)[C@H](CCC(=O)O)NC(=O)CNC1=O)C(=O)N[C@@H]([C@@H](C)O)C(=O)N1CCC[C@@H]1C(=O)N1C[C@@H](NC(=O)COCCOCCOCC(=O)NC(COCCC(=O)NCCOCCn3cc([C@H]4O[C@H](CCP(=O)(O)O)[C@@H](O)[C@H](O)[C@@H]4O)nn3)(COCCC(=O)NCCOCCn3cc([C@H]4O[C@H](CCP(=O)(O)O)[C@@H](O)[C@H](O)[C@@H]4O)nn3)COCCC(=O)NCCOCCn3cc([C@H]4O[C@H](CCP(=O)(O)O)[C@@H](O)[C@H](O)[C@@H]4O)nn3)C[C@H]1C(=O)N[C@@H](CC(=O)O)C(=O)N2 [Compound 2]	< 50	degradation of IgG			EC50 [1]: < 50 nM
CC(C)C[C@H]1NC(=O)[C@H](Cc2c[nH]cn2)NC(=O)[C@H](Cc2c[nH]c3ccccc23)NC(=O)[C@H](C)NC(=O)[C@@H]2CSSC[C@H](NC(=O)[C@H](Cc3c[nH]c4ccccc34)NC(=O)[C@@H](C(C)C)NC(=O)[C@@H](CC(C)C)NC(=O)[C@H](CCC(=O)O)NC(=O)CNC1=O)C(=O)N[C@H]([C@@H](C)O)C(=O)N1CCC[C@@H]1C(=O)N1C[C@@H](NC(=O)CCOCCOCCOCCOCCOCCOCCOCCOCCn3cc(CCCCNC(=O)Nc4ccc5c(c4)Cc4cc(O[C@H]6O[C@H](CCP(=O)(O)O)[C@@H](O)[C@H](O)[C@@H]6O)ccc4-5)nn3)C[C@H]1C(=O)N[C@@H](CC(=O)O)C(=O)N2 [Compound 12]	< 50	degradation of IgG			
COc1ccc(OC2O[C@H](CCP(=O)(O)Cc3cn(CCOCCNC(=O)CCOCC(COCCC(=O)NCCOCCn4cc(CP(=O)(O)CC[C@@H]5OC(Oc6ccc(OC)cc6)[C@H](O)[C@H](O)[C@H]5O)nn4)(COCCC(=O)NCCOCCn4cc(CP(=O)(O)CC[C@H]5OC(Oc6ccc(OC)cc6)[C@@H](O)[C@@H](O)[C@@H]5O)nn4)NC(=O)COCCOCCOCC(=O)N[C@H]4C[C@H]5C(=O)N[C@@H](CC(=O)O)C(=O)N[C@H]6CSSC[C@H](NC(=O)[C@H](Cc7c[nH]c8ccccc78)NC(=O)[C@H](C(C)C)NC(=O)[C@H](CC(C)C)NC(=O)[C@H](CCC(=O)O)NC(=O)CNC(=O)[C@H](CC(C)C)NC(=O)[C@H](Cc7c[nH]cn7)NC(=O)[C@H](Cc7c[nH]c8ccccc78)NC(=O)[C@H](C)NC6=O)C(=O)N[C@@H]([C@@H](C)O)C(=O)N6CCC[C@@H]6C(=O)N5C4)nn3)[C@@H](O)[C@H](O)[C@@H]2O)cc1 (some centres unmarked) [Compound 10]					EC50 [1]: < 50 nM
cyclo(ELVWCT[dP]PDCAWHLG) (disulfide 5-10; not fully specified (residue 8); also: trivalent linker structure not given here) [Compound 2]			< 50	< 50	
cyclo(ELVWCT[dP]PDCAWHLG) (disulfide 5-10; not fully specified (residue 8); also: one triazole-linked A20 group on the PEG8 linker) [Compound 8]			< 50	< 50	
cyclo(ELVWCT[dP]PDCAWHLG) (disulfide 5-10; not fully specified (residue 8); also: trivalent linker structure not given here) [Compound 5]				< 50	EC50 [4]: > 50 nM and < 250 nM
cyclo(ELVWCT[dP]PDCAWHLG) (disulfide 5-10; not fully specified (residue 8); also: one triazole-linked A83 group on the PEG8 linker) [Compound 12]			< 50	< 50	
